Test results taken from ChEMBL document CHEMBL1201862, “PubChem BioAssay data set” (2004).
Activity calls are given as the source filed them.

Assays:
[1] = M. tuberculosis growth inhibition, HTS (AID 449762); format: functional
[2] = PAX5 activity inhibitors, dose response, selectivity assay for PAX8 inhibitor project, cell-based, plate reader, dry powder samples (AID 743047); format: functional;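 note: HEK293 cells carrying a Pax5 driven CD19 promoter luciferase reporter; potency of inhibitors that lower reporter luminescence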
[3] = PAX2 cell-based inhibition, dose response, selectivity assay for PAX8 inhibitor project, plate reader, dry powder samples (AID 743048); format: functional;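 note: HEK293 cells carrying a WT1 promoter luciferase reporter driven by expressed Pax2; potency is for inhibition of Pax2 driven reporter signal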
[4] = cytotoxicity in OVCAR4 cells, dose response, cytotoxicity control for PAX8 inhibitor project, cell-based, plate reader, dry powder, SA11 (AID 743150); format: functional; conditions: OVCAR-4
Paired box protein Pax-8 = Paired box protein Pax-8 (Homo sapiens, UniProt Q06710); assay: inhibitors of PAX8-driven TPO luciferase reporter, dose response, RMG-I cells, cherry-pick (AID 687027); format: functional, cell-based;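 note: luciferase reporter driven by Pax8 target thyroperoxidase promoter measured by SteadyGlo luminescence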
Chain of Paired box protein Pax-8 (Q06710 whole entry): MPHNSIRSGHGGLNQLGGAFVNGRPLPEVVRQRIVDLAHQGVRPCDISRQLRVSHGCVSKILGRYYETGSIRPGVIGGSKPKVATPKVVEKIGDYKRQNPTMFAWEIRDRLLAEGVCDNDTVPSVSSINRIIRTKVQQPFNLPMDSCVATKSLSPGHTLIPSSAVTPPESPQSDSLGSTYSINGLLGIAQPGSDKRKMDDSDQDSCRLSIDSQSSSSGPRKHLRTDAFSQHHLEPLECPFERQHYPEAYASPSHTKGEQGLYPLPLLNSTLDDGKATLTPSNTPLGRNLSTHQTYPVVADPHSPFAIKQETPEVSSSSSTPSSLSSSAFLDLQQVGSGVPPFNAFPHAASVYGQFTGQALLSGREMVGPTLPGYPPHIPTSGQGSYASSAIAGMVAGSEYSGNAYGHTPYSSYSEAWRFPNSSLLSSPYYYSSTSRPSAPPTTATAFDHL

[5] = A2780 ovarian cancer cell cytotoxicity, dose response, cytotoxicity control, plate reader, dry powder samples (AID 743046); format: functional, cell-based
[6] = cytotoxicity in COV434 cells, dose response, cytotoxicity control for PAX8 inhibitor project, cell-based, plate reader, dry powder, SA7 (AID 743145); format: functional
BJ [7] = assay: cells; format: functional, cell-based; conditions: Homo sapiens
[8] = cytotoxicity in HEK-293T cells, dose response, cytotoxicity control for TCR NF-kB inhibitor project, luminescence, T-cell screen hits (AID 489026); format: functional, cell-based;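 note: cells exposed to compound about 14 hours before the viability readout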
BJ [9] = assay: cytotoxicity toward BJ-TERT fibroblasts, dose response, cell-based, RAS-independent, luminescence (AID 1933); format: functional; conditions: Homo sapiens
[10] = NIH:OVCAR-3 ovarian cancer cell cytotoxicity, dose response, PAX8 inhibitor project, plate reader, dry powder samples (AID 743044); format: functional, cell-based
[11] = IGROV1 ovarian cancer cell cytotoxicity, dose response, PAX8 inhibitor project, plate reader, dry powder samples (AID 743043); format: functional, cell-based; conditions: IGROV-1
[12] = cytotoxicity dependent on PAX8, dose response, cell-based, plate reader, dry powder (AID 743049); format: functional
[13] = cytotoxicity toward DRD oncogenic fibroblasts, dose response, cell-based, non-viral oncogenic, luminescence (AID 1934); format: functional; conditions: Homo sapiens
[14] = IOSE-T80 ovarian epithelial cell cytotoxicity, dose response, cytotoxicity control for PAX8 inhibitor project, plate reader, dry powder samples (AID 743045); format: functional, cell-based
BJ [15] = assay: cytotoxicity toward BJ-TERT-LT-ST fibroblasts, dose response, cell-based, RAS-independent, luminescence (AID 1935); format: functional; conditions: Homo sapiens;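 note: BJ fibroblasts immortalized with TERT plus LT and ST oncogenes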
[16] = cytotoxicity in OV-90 ovarian cancer cells, dose response, PAX8 inhibitor project, cell-based, plate reader, dry powder, SA8 (AID 743149); format: functional
[17] = biological target: Diphosphomevalonate decarboxylase (Streptococcus pneumoniae serotype 2 (strain D39 / NCTC 7466), UniProt Q9FD53); assay: S. pneumoniae DPM-DC inhibition retest, confirmation, biochemical, cuvette format, coupled NADH fluorescence (AID 1028); format: functional
Chain of Diphosphomevalonate decarboxylase (Q9FD53 whole entry): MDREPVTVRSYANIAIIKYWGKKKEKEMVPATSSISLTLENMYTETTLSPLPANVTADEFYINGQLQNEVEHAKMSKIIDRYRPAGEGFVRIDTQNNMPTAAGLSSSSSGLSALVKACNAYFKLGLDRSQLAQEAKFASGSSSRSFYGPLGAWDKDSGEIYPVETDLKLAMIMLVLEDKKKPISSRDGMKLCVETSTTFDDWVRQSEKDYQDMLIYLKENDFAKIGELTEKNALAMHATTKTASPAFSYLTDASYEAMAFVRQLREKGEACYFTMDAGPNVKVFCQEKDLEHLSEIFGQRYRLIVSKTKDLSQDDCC

[18] = biological target: Ubiquitin carboxyl-terminal hydrolase BAP1 (Homo sapiens, UniProt Q92560); assay: BAP1 deubiquitinase inhibitors, dose response, biochemical (AID 714); format: functional
Chain of Ubiquitin carboxyl-terminal hydrolase BAP1 (Q92560 whole entry): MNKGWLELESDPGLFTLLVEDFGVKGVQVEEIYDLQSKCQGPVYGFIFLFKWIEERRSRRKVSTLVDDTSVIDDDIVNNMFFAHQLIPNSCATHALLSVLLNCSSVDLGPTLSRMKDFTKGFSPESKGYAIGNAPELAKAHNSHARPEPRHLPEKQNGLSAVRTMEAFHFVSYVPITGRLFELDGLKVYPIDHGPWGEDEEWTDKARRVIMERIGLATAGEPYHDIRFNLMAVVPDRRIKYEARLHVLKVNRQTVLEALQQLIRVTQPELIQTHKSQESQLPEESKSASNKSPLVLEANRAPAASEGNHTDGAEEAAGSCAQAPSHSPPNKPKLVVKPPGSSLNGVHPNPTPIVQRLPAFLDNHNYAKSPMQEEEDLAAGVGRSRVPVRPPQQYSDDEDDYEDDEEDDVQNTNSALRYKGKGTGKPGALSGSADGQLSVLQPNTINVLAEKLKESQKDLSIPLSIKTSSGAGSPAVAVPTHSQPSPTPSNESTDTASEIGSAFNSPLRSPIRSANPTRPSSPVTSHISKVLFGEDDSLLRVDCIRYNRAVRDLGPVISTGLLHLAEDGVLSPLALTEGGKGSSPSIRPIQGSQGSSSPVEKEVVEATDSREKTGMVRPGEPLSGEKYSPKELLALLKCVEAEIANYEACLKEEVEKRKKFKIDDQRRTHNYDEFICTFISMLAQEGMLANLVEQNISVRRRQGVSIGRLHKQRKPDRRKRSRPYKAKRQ

[19] = biological target: T1, Long-chain-fatty-acid--AMP ligase FadD28 (Mycobacterium tuberculosis, UniProt P9WQ59); assay: Fluorescence polarization aasay to screen for inhibitors that compete for the binding of FadD28 to a bisubstrate Measured in Biochemical System Using Plate Reader - 2147-01_Inhibitor_Dose_CherryPick_Activity.; format: functional, Mycobacterium tuberculosis H37Rv
T1 sequence (P9WQ59 whole entry): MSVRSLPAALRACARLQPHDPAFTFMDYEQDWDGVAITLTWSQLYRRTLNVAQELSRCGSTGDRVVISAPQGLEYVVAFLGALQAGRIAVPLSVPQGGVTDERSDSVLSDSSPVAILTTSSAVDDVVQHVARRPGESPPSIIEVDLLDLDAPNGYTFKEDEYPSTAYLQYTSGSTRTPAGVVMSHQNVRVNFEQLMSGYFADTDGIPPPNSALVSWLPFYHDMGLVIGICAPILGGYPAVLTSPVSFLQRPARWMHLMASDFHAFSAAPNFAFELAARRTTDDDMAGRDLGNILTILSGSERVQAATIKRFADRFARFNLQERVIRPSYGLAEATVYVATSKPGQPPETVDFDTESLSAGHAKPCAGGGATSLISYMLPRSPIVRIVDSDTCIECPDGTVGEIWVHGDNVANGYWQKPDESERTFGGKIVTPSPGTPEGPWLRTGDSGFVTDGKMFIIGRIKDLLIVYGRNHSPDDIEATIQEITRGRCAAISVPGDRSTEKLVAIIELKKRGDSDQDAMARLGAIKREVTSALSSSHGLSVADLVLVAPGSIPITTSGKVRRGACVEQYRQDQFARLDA

Fibrinogen beta chain [20] = biological target: T2, Fibrinogen beta chain (Homo sapiens, UniProt P02675); assay: Fluorescence polarization-based biochemical high throughput dose response assay to identify inhibitors that disrupt the binding of a cyclic peptide (Tn7) to the fibrin proteolytic product D-Dimer and fragment E complex [DD(E )].
T2 sequence (P02675 whole entry, the tested form may be a part): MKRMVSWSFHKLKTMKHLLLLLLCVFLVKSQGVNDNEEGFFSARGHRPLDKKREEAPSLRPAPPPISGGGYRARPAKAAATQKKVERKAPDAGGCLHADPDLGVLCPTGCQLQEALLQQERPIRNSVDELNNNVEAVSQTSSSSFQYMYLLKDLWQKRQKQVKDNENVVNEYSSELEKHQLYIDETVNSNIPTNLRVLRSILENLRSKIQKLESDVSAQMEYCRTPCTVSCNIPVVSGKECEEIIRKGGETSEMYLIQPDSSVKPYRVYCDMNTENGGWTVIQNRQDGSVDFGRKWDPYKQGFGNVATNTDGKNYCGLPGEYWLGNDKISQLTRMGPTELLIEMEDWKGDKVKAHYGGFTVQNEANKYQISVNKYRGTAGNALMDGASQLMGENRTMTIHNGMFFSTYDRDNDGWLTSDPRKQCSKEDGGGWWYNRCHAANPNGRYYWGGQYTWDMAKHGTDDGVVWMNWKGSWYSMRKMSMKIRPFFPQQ

Fibrinogen beta chain [21] = biological target: T2, Fibrinogen beta chain; assay: Fluorescence polarization-based biochemical high throughput dose response assay to identify inhibitors that disrupt the binding of a cyclic peptide (Tn6) to the fibrin proteolytic product D-Dimer and fragment E complex [DD(E )].
Cytochrome P450 2C19 = Cytochrome P450 2C19 (Homo sapiens, UniProt P33261); assay: Cytochrome panel assay with activity outcomes. Panel member name: p450-cyp2c19 Compounds with AC50 equal or less than 10 uM are considered active; format: functional; conditions: read-out: AC50
Chain of Cytochrome P450 2C19 (P33261 whole entry): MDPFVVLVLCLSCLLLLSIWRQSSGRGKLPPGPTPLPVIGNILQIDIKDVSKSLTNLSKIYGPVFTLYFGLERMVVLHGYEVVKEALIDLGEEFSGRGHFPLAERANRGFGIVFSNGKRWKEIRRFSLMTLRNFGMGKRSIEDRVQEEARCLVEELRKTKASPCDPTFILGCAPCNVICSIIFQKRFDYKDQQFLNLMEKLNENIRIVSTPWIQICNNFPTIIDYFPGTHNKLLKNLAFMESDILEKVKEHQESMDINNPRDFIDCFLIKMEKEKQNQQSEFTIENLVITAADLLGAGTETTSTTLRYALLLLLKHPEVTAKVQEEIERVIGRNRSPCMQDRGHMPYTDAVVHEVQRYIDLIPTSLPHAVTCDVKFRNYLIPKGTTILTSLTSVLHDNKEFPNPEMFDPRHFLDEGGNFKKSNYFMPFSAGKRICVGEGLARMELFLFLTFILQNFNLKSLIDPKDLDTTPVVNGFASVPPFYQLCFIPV

Ephrin type-A receptor 4 = Ephrin type-A receptor 4 (Mus musculus, UniProt Q03137); assay: inhibitors of EphA4 binding to KYL peptide, primary screen, biochemical, colorimetric, mouse EphA4 (AID 689); format: functional
Chain of Ephrin type-A receptor 4 (Q03137 whole entry): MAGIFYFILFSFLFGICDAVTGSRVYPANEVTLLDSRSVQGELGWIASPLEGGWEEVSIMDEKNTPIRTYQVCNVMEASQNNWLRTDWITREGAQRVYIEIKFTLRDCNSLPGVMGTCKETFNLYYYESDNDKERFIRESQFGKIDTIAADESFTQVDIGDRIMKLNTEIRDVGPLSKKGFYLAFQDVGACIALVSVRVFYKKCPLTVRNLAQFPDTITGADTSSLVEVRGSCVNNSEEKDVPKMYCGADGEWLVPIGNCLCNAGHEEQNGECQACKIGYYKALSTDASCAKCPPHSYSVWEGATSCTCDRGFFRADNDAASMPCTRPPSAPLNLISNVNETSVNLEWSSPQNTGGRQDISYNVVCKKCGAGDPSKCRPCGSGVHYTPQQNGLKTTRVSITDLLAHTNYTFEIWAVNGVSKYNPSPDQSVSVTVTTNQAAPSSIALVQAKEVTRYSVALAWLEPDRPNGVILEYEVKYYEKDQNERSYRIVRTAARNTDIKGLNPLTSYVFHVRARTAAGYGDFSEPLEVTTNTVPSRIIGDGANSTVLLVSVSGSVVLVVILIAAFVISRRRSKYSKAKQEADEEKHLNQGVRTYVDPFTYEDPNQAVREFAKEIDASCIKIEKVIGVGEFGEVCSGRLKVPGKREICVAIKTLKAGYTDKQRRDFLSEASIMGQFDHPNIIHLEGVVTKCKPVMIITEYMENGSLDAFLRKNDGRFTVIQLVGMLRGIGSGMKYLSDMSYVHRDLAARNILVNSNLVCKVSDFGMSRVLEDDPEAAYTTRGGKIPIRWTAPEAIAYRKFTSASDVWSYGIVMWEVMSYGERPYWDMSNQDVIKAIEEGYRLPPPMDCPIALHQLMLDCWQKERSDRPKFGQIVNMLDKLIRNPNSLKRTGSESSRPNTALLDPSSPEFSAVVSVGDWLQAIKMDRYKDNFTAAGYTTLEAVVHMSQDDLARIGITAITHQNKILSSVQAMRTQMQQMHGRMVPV

Cytochrome P450 3A4 = Cytochrome P450 3A4 (Homo sapiens, UniProt P08684);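 note: CYP3A4 tested as one member of a cytochrome P450 panel screen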
Chain of Cytochrome P450 3A4 (P08684 whole entry): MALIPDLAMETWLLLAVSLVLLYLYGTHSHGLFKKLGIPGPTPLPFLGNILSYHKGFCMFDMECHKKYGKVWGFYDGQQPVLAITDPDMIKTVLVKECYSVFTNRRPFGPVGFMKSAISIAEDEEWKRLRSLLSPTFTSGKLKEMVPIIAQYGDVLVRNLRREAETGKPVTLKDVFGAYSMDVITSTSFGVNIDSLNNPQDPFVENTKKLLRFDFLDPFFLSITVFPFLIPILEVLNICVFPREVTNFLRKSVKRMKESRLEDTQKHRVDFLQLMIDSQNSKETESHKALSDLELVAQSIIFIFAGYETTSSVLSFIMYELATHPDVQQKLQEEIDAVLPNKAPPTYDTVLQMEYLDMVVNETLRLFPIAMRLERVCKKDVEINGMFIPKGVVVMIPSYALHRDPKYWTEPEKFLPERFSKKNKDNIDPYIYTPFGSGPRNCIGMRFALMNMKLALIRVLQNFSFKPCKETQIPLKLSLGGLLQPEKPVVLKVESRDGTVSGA

[22] = biological target: Induced myeloid leukemia cell differentiation protein Mcl-1 (Homo sapiens, UniProt Q07820); format: functional
Chain of Induced myeloid leukemia cell differentiation protein Mcl-1 (Q07820 whole entry): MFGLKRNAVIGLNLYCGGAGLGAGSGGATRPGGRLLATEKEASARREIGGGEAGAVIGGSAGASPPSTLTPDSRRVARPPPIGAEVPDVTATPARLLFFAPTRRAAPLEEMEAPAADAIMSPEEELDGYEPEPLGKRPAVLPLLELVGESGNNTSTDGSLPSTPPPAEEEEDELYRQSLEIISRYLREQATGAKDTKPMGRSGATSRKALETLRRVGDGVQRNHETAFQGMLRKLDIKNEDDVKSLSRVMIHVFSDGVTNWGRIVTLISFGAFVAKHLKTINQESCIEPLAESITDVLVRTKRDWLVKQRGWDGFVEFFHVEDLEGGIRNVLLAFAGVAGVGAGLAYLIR

[23] = biological target: Glutathione-S-transferase (Schistosoma japonicum, UniProt Q26513); assay: biotin-GST/anti-GST TR-FRET signal inhibitors, dose response, artefact control for Vif-APOBEC3G degradation inhibitor project, biochemical (AID 1117362); format: functional
Chain of Glutathione-S-transferase (Q26513 whole entry): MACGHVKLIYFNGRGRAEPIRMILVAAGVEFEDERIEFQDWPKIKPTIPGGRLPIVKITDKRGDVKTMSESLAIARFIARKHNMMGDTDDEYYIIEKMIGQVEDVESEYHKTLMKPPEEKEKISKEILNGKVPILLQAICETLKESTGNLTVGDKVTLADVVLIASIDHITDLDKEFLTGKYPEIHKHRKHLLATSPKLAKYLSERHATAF

In the case of `CC(C)(C)c1nc2sc3c(c2c(=O)o1)CCCC3`, the IC50 [1] is reported as > 100 µM (active).

For `CCOCCCNC(=O)c1ccc2c(c1)N=C(CC)c1cc(Br)ccc1S2`, the AC50 [2] was 41.8 µM (active), the AC50 [3] was 15.3 µM (active) and the AC50 [4] was 1.16 µM (active). The AC50 (Paired box protein Pax-8) was 1.22 µM (active), the AC50 [5] was 1.35 µM (active) and the AC50 [6] was 1.07 µM (active). For the same compound, the EC50 (BJ [7]) was 0.828 µM (inconclusive), the IC50 [8] was > 80 µM (inactive) and the EC50 (BJ [9]) was 0.342 µM (active). For the same compound, the AC50 [10] was 0.3 µM (active), the AC50 [11] was 4.78 µM (active) and the AC50 [12] was 0.386 µM (active). The EC50 [13] was 0.358 µM (active), the AC50 [14] was 0.403 µM (active) and the EC50 (BJ [15]) was 0.455 µM (active). The AC50 [16] was 0.497 µM (active).

For `O=C(NCc1ccco1)c1ccccc1-n1sc2ccccc2c1=O`, the IC50 [17] was 38.7 µM (active).

For `CC1CCCN(S(=O)(=O)c2ccc(NC(=O)Cn3nnc(-c4ccccc4F)n3)cc2)C1` (configuration not stated), the IC50 [18] was 41.6 µM (not active) and the AC50 [19] was > 100 µM (inactive).

For `Nc1c(SCCC(=O)O)ccc2c1C(=O)c1ccccc1C2=O`, the IC50 (Fibrinogen beta chain [20]) was > 83.3 µM (inactive) and the IC50 (Fibrinogen beta chain [21]) was 11.7 µM (inactive).

For `CCOC(=O)c1c(N=C(S)Nc2ccccc2)sc2c1CCN(CCc1ccccc1)C2`, the AC50 (Cytochrome P450 2C19) was 22.4 µM (inconclusive), the IC50 (Ephrin type-A receptor 4) was 14.7 µM (active) and the AC50 (Cytochrome P450 3A4) was 22.4 µM (inconclusive).

In the case of `COc1ccc(O)c(N)c1`, the IC50 [22] is reported as 1.53 µM (active) and the IC50 [23] is reported as > 100 µM (active).
